Measurements: paper PMC8347595, “N-Skatyltryptamines—Dual 5-HT6R/D2R Ligands with Antipsychotic and Procognitive Potential” (Molecules, 2021)
Where two headings read alike, the source gives them in different places.

Experiments:
5-HT6 = test system: 5-HT6; set-up: method as in Dupuis et al. (2008) [31]; conditions: Figure 8; ref Dupuis et al. (2008) [31]; cited from earlier work
5-HT2AR = 5-HT2AR (Homo sapiens, UniProt P28223); assay: Radioligand binding assay, [3H]-ketanserin displacement; set-up: host or cells: CHO-K1; membrane preparation; conditions: Table 1
5-HT2AR, sequence (P28223 whole entry): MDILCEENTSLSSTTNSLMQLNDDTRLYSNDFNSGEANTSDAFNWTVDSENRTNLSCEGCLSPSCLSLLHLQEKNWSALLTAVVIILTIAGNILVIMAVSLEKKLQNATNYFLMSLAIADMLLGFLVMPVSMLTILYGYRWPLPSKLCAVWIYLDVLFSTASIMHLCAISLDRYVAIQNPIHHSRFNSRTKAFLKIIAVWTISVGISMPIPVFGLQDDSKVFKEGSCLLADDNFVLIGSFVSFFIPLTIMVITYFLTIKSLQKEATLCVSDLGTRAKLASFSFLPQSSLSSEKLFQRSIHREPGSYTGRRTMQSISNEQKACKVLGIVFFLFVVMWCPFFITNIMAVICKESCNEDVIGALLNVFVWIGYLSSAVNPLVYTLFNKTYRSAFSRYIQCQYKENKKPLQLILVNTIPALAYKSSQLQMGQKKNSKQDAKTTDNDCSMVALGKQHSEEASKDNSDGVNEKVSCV

5-HT1AR = molecular target: T1, 5-HT1AR (Homo sapiens, UniProt P08908); assay: Radioligand binding assay, [3H]-8-OH-DPAT displacement
T1 sequence (P08908 1-422): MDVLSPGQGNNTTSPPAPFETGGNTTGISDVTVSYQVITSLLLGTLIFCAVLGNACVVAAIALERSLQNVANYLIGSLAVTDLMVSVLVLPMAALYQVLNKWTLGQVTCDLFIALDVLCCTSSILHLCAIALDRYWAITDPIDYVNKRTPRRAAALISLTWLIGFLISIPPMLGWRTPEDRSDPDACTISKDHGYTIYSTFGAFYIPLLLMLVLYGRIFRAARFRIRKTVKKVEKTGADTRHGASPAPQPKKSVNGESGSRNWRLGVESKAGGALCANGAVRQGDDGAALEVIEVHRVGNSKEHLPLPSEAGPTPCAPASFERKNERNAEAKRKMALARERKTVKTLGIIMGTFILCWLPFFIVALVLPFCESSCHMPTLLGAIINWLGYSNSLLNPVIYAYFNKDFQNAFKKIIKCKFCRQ

5-HT6R = 5-HT6R (Homo sapiens, UniProt P50406); assay: Radioligand binding assay, [3H]-LSD displacement
5-HT6R, sequence (P50406 whole entry): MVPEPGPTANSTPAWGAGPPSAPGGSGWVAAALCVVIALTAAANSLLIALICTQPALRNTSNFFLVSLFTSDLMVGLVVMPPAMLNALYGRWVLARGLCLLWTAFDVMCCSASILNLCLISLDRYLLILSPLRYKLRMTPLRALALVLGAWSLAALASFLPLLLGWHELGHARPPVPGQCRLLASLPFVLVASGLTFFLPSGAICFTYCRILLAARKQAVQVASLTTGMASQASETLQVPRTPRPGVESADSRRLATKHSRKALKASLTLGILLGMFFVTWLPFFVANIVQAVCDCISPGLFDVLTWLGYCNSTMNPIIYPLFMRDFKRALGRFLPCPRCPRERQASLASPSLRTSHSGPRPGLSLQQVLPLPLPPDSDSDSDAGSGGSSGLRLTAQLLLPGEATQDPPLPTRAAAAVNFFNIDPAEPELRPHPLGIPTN

5-HT7R = 5-HT7R (Homo sapiens, UniProt P34969); assay: Radioligand binding assay, [3H]-5-CT displacement
5-HT7R, sequence (P34969 1-432): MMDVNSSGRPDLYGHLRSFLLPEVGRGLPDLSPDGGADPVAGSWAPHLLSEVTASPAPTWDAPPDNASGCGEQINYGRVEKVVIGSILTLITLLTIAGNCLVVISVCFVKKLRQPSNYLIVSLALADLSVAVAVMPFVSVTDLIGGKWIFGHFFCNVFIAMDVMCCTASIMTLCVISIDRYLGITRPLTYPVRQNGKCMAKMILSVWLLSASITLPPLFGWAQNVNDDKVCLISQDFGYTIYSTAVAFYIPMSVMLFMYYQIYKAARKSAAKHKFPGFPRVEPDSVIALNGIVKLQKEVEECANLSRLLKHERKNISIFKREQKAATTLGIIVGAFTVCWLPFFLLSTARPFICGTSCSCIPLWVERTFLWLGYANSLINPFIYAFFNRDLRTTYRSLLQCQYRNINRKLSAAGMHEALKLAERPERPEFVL

D2R [1] = molecular target: T2, D2R (Homo sapiens, UniProt P14416); assay: Radioligand binding assay, [3H]-raclopride displacement
T2 sequence (P14416 whole entry): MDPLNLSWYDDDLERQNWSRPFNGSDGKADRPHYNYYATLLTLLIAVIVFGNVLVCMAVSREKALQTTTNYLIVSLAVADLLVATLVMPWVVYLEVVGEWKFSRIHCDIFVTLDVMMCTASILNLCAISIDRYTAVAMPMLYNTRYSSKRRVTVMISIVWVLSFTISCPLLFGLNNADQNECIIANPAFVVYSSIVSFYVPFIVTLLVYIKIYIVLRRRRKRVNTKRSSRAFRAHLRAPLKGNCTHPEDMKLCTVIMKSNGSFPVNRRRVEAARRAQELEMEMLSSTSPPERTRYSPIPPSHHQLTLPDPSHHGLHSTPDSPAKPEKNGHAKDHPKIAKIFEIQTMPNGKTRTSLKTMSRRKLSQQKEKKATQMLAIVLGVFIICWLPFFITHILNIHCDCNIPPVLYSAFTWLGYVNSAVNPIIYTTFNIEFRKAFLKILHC

CYP3A4 = molecular target: T3, CYP3A4 (Homo sapiens, UniProt P08684); assay: CYP3A4 P450-Glo luminescent assay; format: in vitro ADME; conditions: compared to ketoconazole; 0.01 to 25 µM
T3 construct: purchased Promega (Madison, WI, USA)
T3 sequence (P08684 whole entry): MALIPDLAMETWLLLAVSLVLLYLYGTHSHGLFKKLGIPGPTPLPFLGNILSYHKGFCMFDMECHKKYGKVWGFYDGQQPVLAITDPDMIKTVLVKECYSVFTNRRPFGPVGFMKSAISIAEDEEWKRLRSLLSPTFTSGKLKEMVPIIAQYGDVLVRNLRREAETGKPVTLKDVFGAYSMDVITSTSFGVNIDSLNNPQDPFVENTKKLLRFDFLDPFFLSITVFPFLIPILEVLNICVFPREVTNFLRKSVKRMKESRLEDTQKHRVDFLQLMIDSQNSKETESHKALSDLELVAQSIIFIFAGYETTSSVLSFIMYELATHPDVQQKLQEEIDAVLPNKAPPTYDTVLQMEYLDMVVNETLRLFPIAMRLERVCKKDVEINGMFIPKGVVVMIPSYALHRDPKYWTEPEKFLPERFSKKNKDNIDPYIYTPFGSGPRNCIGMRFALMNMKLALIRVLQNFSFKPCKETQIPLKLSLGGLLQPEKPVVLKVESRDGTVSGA
Description: The experiments were provided using commercially available luminescent CYP3A4 P450-Glo™ and CYP2D6 P450-Glo™ tests purchased from Promega (Madison, WI, USA). The enzymatic reactions were conducted in polystyrene, flat-bottom Nunc™ MicroWell™ 96-well microplates (Thermo Scientific, Waltham, MA, USA). The assays were carried out according to the procedures provided by the manufacturer, as described previously. Compounds were tested in triplicate at the final concentrations in a range from 0.01 to 25 µM for both isoforms of CYP450. The references of CYP3A4 and CYP2D6 inhibitors (ketoconazole and quinidine, respectively) were tested in a range from 0.001 to 10 µM. Tested compounds were incubated in 100 mM Tris-HCl buffer separately with CYP3A4 and CYP2D6 membranes and the NADPH Regeneration System for 30 min at room temperature in triplicate. The bioluminescent signal was measured after the addition of the Luciferin Detection Reagent by using a microplate reader EnSpire PerkinElmer (Waltham, MA, USA). Both reagents (NADPH Regeneration System and Luciferin Detection Reagent) were purchased from Promega (Madison, WI, USA).

HepG2 cell line = assay: Hepatotoxicity assay, HepG2 viability; format: cell-based; conditions: 1 μM, 72 h
Description: To estimate the hepatotoxicity of compounds, the hepatoma HepG2 (ATCC® HB-8065TM) cell line was used according to previously described protocols. The CellTiter 96® AQueous Non-Radioactive Cell Proliferation Assay was obtained from Promega (Madison, WI, USA). The compounds were tested in quadruplicate at four concentrations (1–100 µM) for 72 h.

Human Serotonin 5-HT6R = molecular target: T4, Human Serotonin 5-HT6R (Homo sapiens, UniProt P50406); assay: 5-HT6R functional assay, antagonistic mode (cAMP induced by 5-CT, 1321N1 cells); format: cell-based
T4 construct: host or cells: 1321N1 (frozen recombinant cells)
T4 sequence (P50406 whole entry): as the sequence (P50406 whole entry) above
Description: The properties of compounds to inhibit cAMP production induced by a 5-HT6R agonist 5-CT (1000 nM) was evaluated. Compounds were tested in triplicate at eight concentrations (10^−11–10^−4 M). The level of cAMP was measured using frozen recombinant 1321N1 cells expressing the Human Serotonin 5-HT6R (PerkinElmer). Total cAMP was measured using the LANCE cAMP Detection Kit (PerkinElmer), according to the manufacturer’s instructions. For quantification of cAMP levels, 2000 cells/well ([…]) were incubated with a mixture of compounds ([…]) for 30 min at room temperature in a 384-well white opaque microtiter plate. After incubation, the reaction was stopped and cells were lysed by the addition of […] of working solution ([…] ULight-anti-cAMP) for 1 h at room temperature. Time-resolved fluorescence resonance energy transfer (TR-FRET) was detected by an Infinite M1000 Pro (Tecan) using instrument settings from the LANCE cAMP Detection Kit manual. […] The agonistic properties of compounds were determined with an analogous procedure, but without stimulation with 5-CT [10, 36].

in vitro = conditions: PAMPA, pH 7.4
D2R [2] = molecular target: T2, D2R; assay: D2R functional assay, antagonist mode (cAMP, HEK293 cells); format: cell-based; set-up: expressed in transfected cells
Description: The supernatant was aspirated, and the cell pellet was resuspended in stimulation buffer (1 × HBSS, 5 mM HEPES, 0.5 mM IBMX, 0.1% BSA).
The functional properties of compounds were evaluated using the LANCE Ultra cAMP Detection Kit (PerkinElmer). D2 receptors in HEK293 cells are coupled to Gi subtype and decreased cAMP production. […] Each compound was tested in triplicate at eight concentrations (10^−11–10^−4 M).
For quantification of cAMP levels, cells (5 µL) were incubated with 5 µL mixture of compounds (tested ligand and forskolin with 100 nM quinpirole for antagonist binding mode) for 30 min at room temperature in 384-well white opaque microtiter plate (PerkinElmer). After incubation, the reaction was stopped and cells were lysed by the addition of 10 µL working solution (5 µL Eu-cAMP and 5 µL ULight-anti-cAMP). The assay plate was incubated for 1 h at room temperature. Time-resolved fluorescence resonance energy transfer (TR-FRET) signal was detected by an Infinite M1000 Pro (Tecan) using instrument settings from the LANCE Ultra cAMP Detection Kit manual.

[3] = for permeability in words: PAMPA
[4] = Metabolic stability, incubation with mouse liver microsomes; format: in vitro ADME; conditions: MLMs, 50 µM, 2 h
Description: The murine liver microsomes (MLMs) were purchased from Sigma-Aldrich (St. Louis, MO, USA). To determine metabolic pathways, the tested compounds (50 µM) were incubated with 100 mM Tris-HCl buffer at 37 °C with MLMs (1 mg/mL) and NADPH Regeneration System for 2 h. Reactions were quenched with cold, pure methanol and mixtures were centrifuged 14,000 g for 15 min. The supernatants were analyzed using LCMS. The additional MS ion fragmentation of the product and the substrate were performed to determine the most probable structure of the metabolite.

[5] = read-out: pKi 5-HT2A (converted)
[6] = antagonistic mode, 5-CT 1000 nM, read-out: 5-HT6 Kb
[7] = antagonistic mode, 100 nM quinpirole, read-out: D2 Kb

Compound | Ki (5-HT2AR; [5]) | Ki (5-HT1AR; pKi 5-HT1A, Table 1) | Ki (5-HT6R; pKi 5-HT6, Table 1) | Ki (5-HT7R) | Ki (D2R [1]; pKi D2, Table 1) | also measured
Fc1cccc2c(CNCCc3c[nH]c4ccccc34)c[nH]c12 [Compound 16] | 1230 nM | 5620 nM | 316 nM | 12.9 µM | – | –
Clc1ccc2[nH]cc(CNCCc3c[nH]c4ccccc34)c2c1 [Compound 11] | 3240 nM | 676 nM | 513 nM | 3.8 µM | 2090 nM | –
Clc1ccc2c(CNCCc3c[nH]c4ccccc34)c[nH]c2c1 [Compound 14] | 468 nM | 1070 nM | 89.1 nM | 15.8 µM | 123 nM | effect on CYP3A4 activity (CYP3A4): only slightly inhibited; HepG2 cell viability (HepG2 cell line): ~ 80 % of the control; effect on HepG2 proliferation in words (HepG2 cell line): slight antiproliferative effect; Kb (Human Serotonin 5-HT6R; [6]): 112 nM; Papp at 5 h, 200 µM (in vitro): 8.34 ± 1.33 ×10⁻⁶ cm/s; Kb (D2R [2]; [7]): 290 nM; Ki (5-HT6R; Ki 5-HT6, Figure 8): 90 nM; permeability in words [3]: medium permeability coefficients; Metabolic Pathway, metabolite M1 [4]: hydroxylation hydroxylation; Metabolic Pathway, metabolite M2 [4]: hydroxylation hydroxylation; Ki (D2R [1]; Ki D2, Figure 8): 124 nM
Clc1ccc2[nH]cc(CCNCc3c[nH]c4ccccc34)c2c1 [Compound 4] | – | – | 107 nM | – | 2450 nM | –
Ic1ccc2[nH]cc(CNCCc3c[nH]c4ccccc34)c2c1 [Compound 12] | 2340 nM | 490 nM | 457 nM | 5.13 µM | 2090 nM | –
Clc1ccc2c(CCNCc3c[nH]c4c(Cl)cccc34)c[nH]c2c1 [Compound 22] | 4070 nM | 5620 nM | 363 nM | 13.2 µM | 5010 nM | –
CCn1cc(C(=O)O)c(=O)c2cc(F)c(N3CCNCC3)cc21 [Norfloxacin, norfloxacin, reference compound] | – | – | – | – | – | PAMPA Pe ± SD ([3]; 5 h, 200 µM, pH 7.4): 0.56 10^−6 cm/s
Fc1ccc2c(CNCCc3c[nH]c4ccccc34)c[nH]c2c1 [Compound 13] | – | – | 224 nM | 18.2 µM | 302 nM | Ki (5-HT2AR; pKi 5-HT2A): 2570 nM; Kb (Human Serotonin 5-HT6R): 30 nM; Ki (5-HT1AR): 1350 nM; EC50 (D2R [2]): 91 nM; Kb (D2R [2]): 91 nM; Ki (5-HT6R; Ki 5-HT6, Figure 8): 225 nM; Ki (D2R [1]; Ki D2, Figure 8): 299 nM
COc1ccc2[nH]cc(CCNCc3c[nH]c4ccccc34)c2c1 [Compound 3] | – | 155 nM | 117 nM | 0.562 µM | – | Ki (5-HT2AR; pKi 5-HT2A): 83.2 nM; Ki (5-HT1AR; Ki 5-HT1AR): 156 nM; pKi D2 (D2R [1]; Table 1): 6.49
Fc1ccc2[nH]cc(CNCCc3c[nH]c4ccccc34)c2c1 [Compound 10] | 3470 nM | 490 nM | 407 nM | 4.79 µM | 8510 nM | –
Fc1cccc2c(CCNCc3c[nH]c4ccccc34)c[nH]c12 [Compound 6] | 380 nM | 2750 nM | 170 nM | 10.2 µM | 2950 nM | Ki (5-HT6R; Ki 5-HT6, Figure 8): 168 nM
Cc1ccc2[nH]cc(CCNCc3c[nH]c4ccccc34)c2c1 [Compound 2] | 562 nM | 692 nM | 129 nM | 2.95 µM | > 10000 nM | –
Clc1cccc2c(CCNCc3c[nH]c4ccccc34)c[nH]c12 [Compound 7] | 631 nM | 5130 nM | 132 nM | 25.1 µM | 11700 nM | Ki (5-HT6R; Ki 5-HT6, Figure 8): 133 nM
c1ccc(COc2cccc3c(CNCCc4c[nH]c5ccccc45)c[nH]c23)cc1 [Compound 19] | 2290 nM | 741 nM | 302 nM | 11.2 µM | 4070 nM | Ki (5-HT6R; Ki 5-HT6, Figure 8): 303 nM
COc1ccc2[nH]cc(CCNCc3c[nH]c4cc(Cl)ccc34)c2c1 [Compound 21] | 174 nM | 186 nM | 52.5 nM | 0.813 µM | 1550 nM | –
COc1ccc2[nH]cc(CCNCc3c[nH]c4c(Cl)cccc34)c2c1 [Compound 20] | 309 nM | – | 97.7 nM | 0.295 µM | 2340 nM | Ki (5-HT1AR): 79.4 nM
Oc1ccc2[nH]cc(CNCCc3c[nH]c4ccccc34)c2c1 [Compound 9] | 1950 nM | 2880 nM | 2240 nM | 5.13 µM | 7590 nM | –
Brc1cccc2c(CCNCc3c[nH]c4ccccc34)c[nH]c12 [Compound 8] | 776 nM | 6030 nM | 162 nM | 20.4 µM | 3020 nM | Ki (5-HT6R; Ki 5-HT6, Figure 8): 161 nM
Clc1cccc2c(CNCCc3c[nH]c4ccccc34)c[nH]c12 [Compound 17] | 3890 nM | 282 nM | 363 nM | 1.07 µM | 51.3 nM | effect on CYP3A4 activity (CYP3A4): only slightly inhibited; HepG2 cell viability (HepG2 cell line): ~ 80 % of the control; effect on HepG2 proliferation in words (HepG2 cell line): slight antiproliferative effect; Kb (Human Serotonin 5-HT6R; [6]): 234 nM; Papp at 5 h, 200 µM (in vitro): 8.42 ± 0.27 ×10⁻⁶ cm/s; Kb (D2R [2]; [7]): 215 nM; permeability in words [3]: medium permeability coefficients; Metabolic Pathway, metabolite M1 [4]: hydroxylation hydroxylation; Metabolic Pathway, metabolite M2 [4]: hydroxylation hydroxylation; Ki (D2R [1]; Ki D2, Figure 8): 51 nM
